Tested on: monocistronic NK5.1 HCV replicon in Huh7 cells
Assay: HCV replicon assay, monocistronic replicon cell line
Format: cell-based, hepatitis C virus
Settings: Hepatitis C virus, Huh-7, 72 h; Table 1; monocistronic replicon in Huh7 cells, 3 days incubation, HCV RNA/GAPDH RNA by TaqMan RT-PCR; read-out: Mono EC50 Median
Source text: HCV Replicon Assays (Replicon EC50 (μM))
HCV replication can be measured by a replicon assay such as described by Vrolijk et al, J. Virol. Methods 110:201(2003), which is hereby incorporated in its entirety by reference. The method was implemented as follows.
Monocistronic Replicon Cell Line:
Human hepatocyte Huh7 cells containing the monocistronic NK5.1 replicon were obtained from Ralf Bartenschlager at the University of Mainz, Germany. These cells were maintained under hygromycin selection and passaged when 80-90% confluent.
This cell line contains an autonomously replicating RNA element (replicon) incorporating the non-structural HCV elements necessary for replication, and upon which the survival of the replicon in the cell depends. This replicon contains a single internal ribosome entry site (HCV IRES). Inhibition of any of the critical HCV finctions by a compound leads to loss of the replicon as measured by HCV replicon RNA copy number reduction. The amount of HCV RNA present following a standard incubation with a compound is a measure of the anti-HCV activity of the compound. The assay was conducted by preparing sufficient 96-well plates containing these cells, wherein cells are seeded at 6000 cells/well in a 96-well plate, in 200 μl of final media volume. Cells were then incubated for 24 hours at 37 C., 5% CO2, and 95% humidity before compound was added. Six point half-log concentration response assays were conducted to determine potency/EC50 of Formula I compounds to inhibit HCV replicon replication. The final percent DMSO acceptable in this assay system is 0.6%. Compounds were diluted in media in an appropriate format and 5 μl of each drug dilution is added to each well. Cells were then incubated with compounds for 3 days at 37 C., 5% CO2, and 95% humidity. Following the three day incubation period, plates were washed twice with phosphate buffered saline to remove media and cells were lysed with Qiagen extraction buffer. RNA was extracted and isolated with the Qiagen RNAeasy kit according to the manufacturer's protocol (Qiagen). TaqMan One-Step RT-PCR was used in conjunction with an ABI 7700 Sequence Detector (Applied Biosystems) for the quantitation and analysis of HCV replicon RNA copy number. A GAPDH probe was used for internal normalization. The ratio of HCV RNA to cellular GAPDH RNA was determined and compared to the DMSO-only treated control, and the ratio of HCV RNA/GAPDH RNA was used for an EC50 determination and as a measure of specificity for inhibition of the HCV replicon.

COc1ccc(-c2ccn(-c3ncc(C(F)(F)F)cc3Cl)n2)c(F)c1 [Compound 47, 3-Chloro-2-[3-(2-fluoro-4-methoxy-phenyl)-pyrazol-1-yl]-5-trifluoromethyl-pyridine]
EC50: 6 µM

COc1ccc(-c2ccnn2-c2ncc(C(F)(F)F)cc2Cl)c(F)c1 [Compound 48, 3-Chloro-2-[5-(2-fluoro-4-methoxy-phenyl)-pyrazol-1-yl]-5-trifluoromethyl-pyridine]
EC50: 15 µM

COc1ccc(-c2ccn(-c3c(Cl)cncc3Cl)n2)c(F)c1 [Compound 49, 3,5-Dichloro-4-[3-(2-fluoro-4-methoxy-phenyl)-pyrazol-1-yl]-pyridine]
EC50: > 32 µM

COc1ccc(-c2ccnn2-c2c(Cl)cncc2Cl)c(F)c1 [Compound 50, 3,5-Dichloro-4-[5-(2-fluoro-4-methoxy-phenyl)-pyrazol-1-yl]-pyridine]
EC50: 5.8 µM

COc1ccc(-c2ccn(-c3ncccc3C(F)(F)F)n2)c(F)c1 [Compound 51, 2-[3-(2-Fluoro-4-methoxy-phenyl)-pyrazol-1-yl]-3-trifluoromethyl-pyridine]
EC50: 20 µM

COc1ccc(-c2ccnn2-c2ncccc2C(F)(F)F)c(F)c1 [Compound 52, 2-[5-(2-Fluoro-4-methoxy-phenyl)-pyrazol-1-yl]-3-trifluoromethyl-pyridine]
EC50: 2.1 µM

COc1ccc(-c2ccn(-c3ccccn3)n2)c(F)c1 [Compound 53, 2-[3-(2-Fluoro-4-methoxy-phenyl)-pyrazol-1-yl]-pyridine]
EC50: > 32 µM

COc1ccc(-c2ccnn2-c2ccccn2)c(F)c1 [Compound 54, 2-[5-(2-Fluoro-4-methoxy-phenyl)-pyrazol-1-yl]-pyridine]
EC50: 2.2 µM

CCCNC(=O)c1cc(-c2ccc(OC)cc2)nn1-c1ccc(Cl)cc1 [Compound 55, 2-(4-Chloro-phenyl)-5-(4-methoxy-phenyl)-2H-pyrazole-3-carboxylic acid propylamide]
EC50: 18 µM

CCOC(=O)c1cc(-c2ccc(OC)cc2)nn1-c1ncccc1C(F)(F)F [Compound 56, 5-(4-Methoxy-phenyl)-2-(3-trifluoromethyl-pyridin-2-yl)-2H-pyrazole-3-carboxylic acid ethyl ester]
EC50: > 32 µM

CCOC(=O)c1cc(-c2ccc(OC)cc2)n(-c2ncccc2C(F)(F)F)n1 [Compound 57, 5-(4-Methoxy-phenyl)-1-(3-trifluoromethyl-pyridin-2-yl)-1H-pyrazole-3-carboxylic acid ethyl ester]
EC50: > 32 µM

COc1ccc(-c2cc(C(=O)O)nn2-c2ncccc2C(F)(F)F)cc1 [Compound 58]
EC50: > 32 µM

CCCNC(=O)c1cc(-c2ccc(OC)cc2)nn1-c1ncccc1C(F)(F)F [Compound 59, 5-(4-Methoxy-phenyl)-2-(3-trifluoromethyl-pyridin-2-yl)-2H-pyrazole-3-carboxylic acid propylamide]
EC50: > 32 µM

CCOC(=O)c1cc(-c2ccc(OC)cc2)nn1-c1ncccc1[N+](=O)[O-] [Compound 60, 5-(4-Methoxy-phenyl)-2-(3-nitro-pyridin-2-yl)-2H-pyrazole-3-carboxylic acid ethyl ester]
EC50: > 32 µM

CCOC(=O)c1cc(-c2ccc(OC)cc2)n(-c2ncccc2[N+](=O)[O-])n1 [Compound 61, 5-(4-Methoxy-phenyl)-1-(3-nitro-pyridin-2-yl)-1H-pyrazole-3-carboxylic acid ethyl ester]
EC50: 19 µM

CCCNC(=O)c1cc(-c2ccc(OC)cc2)nn1-c1ccccn1 [Compound 62]
EC50: > 32 µM

COc1ccc(-c2cc(C(=O)O)n(-c3ccccn3)n2)cc1 [Compound 63]
EC50: > 32 µM

CCOC(=O)c1cc(-c2ccc3ccccc3c2)nn1-c1ccccn1 [Compound 65, 5-Naphthalen-2-yl-2-pyridin-2-yl-2H-pyrazole-3-carboxylic acid ethyl ester]
EC50: > 32 µM

CCOC(=O)c1cc(-c2ccc3ccccc3c2)n(-c2ccccn2)n1 [Compound 66, 5-Naphthalen-2-yl-1-pyridin-2-yl-1H-pyrazole-3-carboxylic acid ethyl ester]
EC50: 30 µM

CCOC(=O)c1cc(-c2ccc3ccccc3c2)n(-c2ncccc2C(F)(F)F)n1 [Compound 67, 5-Naphthalen-2-yl-1-(3-trifluoromethyl-pyridin-2-yl)-1H-pyrazole-3-carboxylic acid ethyl ester]
EC50: 22 µM

CCOC(=O)c1cc(-c2ccc3ccccc3c2)nn1-c1ncccc1C(F)(F)F [Compound 68]
EC50: 12 µM

CCOC(=O)c1cc(-c2ccc3ccccc3c2)n(-c2ncccc2[N+](=O)[O-])n1 [Compound 69]
EC50: 24 µM

CCCNC(=O)c1cc(-c2ccc(OC)cc2)nn1-c1ncccc1[N+](=O)[O-] [Compound 70, 5-(4-Methoxy-phenyl)-2-(3-nitro-pyridin-2-yl)-2H-pyrazole-3-carboxylic acid propylamide]
EC50: > 32 µM

CCCNC(=O)c1cc(-c2ccc3ccccc3c2)nn1-c1ccccn1 [Compound 71, 5-Naphthalen-2-yl-2-pyridin-2-yl-2H-pyrazole-3-carboxylic acid propylamide]
EC50: 21 µM

CCCNC(=O)c1cc(-c2ccc3ccccc3c2)n(-c2ccccn2)n1 [Compound 72, 5-Naphthalen-2-yl-1-pyridin-2-yl-1H-pyrazole-3-carboxylic acid propylamide]
EC50: > 32 µM

O=C(O)c1cc(-c2ccc3ccccc3c2)nn1-c1ccccn1 [Compound 73, 5-Naphthalen-2-yl-2-pyridin-2-yl-2H-pyrazole-3-carboxylic acid]
EC50: > 32 µM

O=C(O)c1cc(-c2ccc3ccccc3c2)n(-c2ccccn2)n1 [Compound 74, 5-Naphthalen-2-yl-1-pyridin-2-yl-1H-pyrazole-3-carboxylic acid]
EC50: > 32 µM

O=C(O)c1cc(-c2ccc3ccccc3c2)n(-c2ncccc2[N+](=O)[O-])n1 [Compound 75]
EC50: > 32 µM

CCCNC(=O)c1cc(-c2ccc3ccccc3c2)nn1-c1ncccc1C(F)(F)F [Compound 76, 5-Naphthalen-2-yl-2-(3-trifluoromethyl-pyridin-2-yl)-2H-pyrazole-3-carboxylic acid propylamide]
EC50: 9.4 µM

CCCNC(=O)c1cc(-c2ccc3ccccc3c2)n(-c2ncccc2C(F)(F)F)n1 [Compound 77, 5-Naphthalen-2-yl-1-(3-trifluoromethyl-pyridin-2-yl)-1H-pyrazole-3-carboxylic acid propylamide]
EC50: > 32 µM

O=C(O)c1cc(-c2ccc3ccccc3c2)nn1-c1ncccc1C(F)(F)F [Compound 78, 5-Naphthalen-2-yl-2-(3-trifluoromethyl-pyridin-2-yl)-2H-pyrazole-3-carboxylic acid]
EC50: > 32 µM

O=C(O)c1cc(-c2ccc3ccccc3c2)n(-c2ncccc2C(F)(F)F)n1 [Compound 79, 5-Naphthalen-2-yl-1-(3-trifluoromethyl-pyridin-2-yl)-1H-pyrazole-3-carboxylic acid]
EC50: > 32 µM

COc1ccc(OCc2ccccc2)c(-c2ccn(-c3ncccc3C(F)(F)F)n2)c1 [Compound 80, 2-[3-(2-Benzyloxy-5-methoxy-phenyl)-pyrazol-1-yl]-3-trifluoromethyl-pyridine]
EC50: 1.8 µM

COc1ccc(OCc2ccccc2)c(-c2ccnn2-c2ncccc2C(F)(F)F)c1 [Compound 81, 2-[5-(2-Benzyloxy-5-methoxy-phenyl)-pyrazol-1-yl]-3-trifluoromethyl-pyridine]
EC50: 6.2 µM

COc1ccc(OCc2ccccc2)c(-c2ccn(-c3ccccn3)n2)c1 [Compound 82, 2-[3-(2-Benzvloxy-5-methoxy-phenvl)-pvrazol-1-yl]-pyridine]
EC50: 4.3 µM

COc1ccc(OCc2ccccc2)c(-c2ccnn2-c2ccccn2)c1 [Compound 83, 2-[5-(2-Benzvloxy-5-methoxy-phenyl)-pvrazol-1-yl]-pyridine]
EC50: 31 µM

COc1ccc(O)c(-c2ccn(-c3ccccn3)n2)c1 [Compound 84, 4-Methoxy-2-(1-pyridin-2-yl-1H-pyrazol-3-yl)-phenol]
EC50: 3.3 µM

COc1ccc(O)c(-c2ccnn2-c2ccccn2)c1 [Compound 85, 4-Methoxy-2-(2-pyridin-2-yl-2H-pyrazol-3-yl)-phenol]
EC50: > 32 µM

COc1ccc(O)c(-c2ccn(-c3ncccc3C(F)(F)F)n2)c1 [Compound 86, 4-Methoxy-2-[1-(3-trifluoromethyl-pyridin-2-yl)-1H-pyrazol-3-yl]-phenol]
EC50: 7.8 µM

c1ccc(COc2ccc3ccccc3c2-c2ccn(-c3ccccn3)n2)cc1 [Compound 87, 2-[3-(2-Benzyloxy-naphthalen-1-yl)-pyrazol-1-yl]-pyridine]
EC50: > 32 µM

— patent US20050075375A1 (priority 2003, published 2005)
